Experimental data: patent US9127003B2, “2-(azaindol-2-yl)benzimidazoles as PAD4 inhibitors” (Glaxo Group Limited, priority 2012, dated 2015)
Several values for one entry are separate records, joined by “and”; a condition that tells them apart may be missing. Equal entries are not always repeated. Structures can show the parent of a compound that is named as a salt.

Key:
[1] = biological target: T1, Recombinant human PAD4 (residues 1-663) (Homo sapiens, UniProt Q9UM07); assay: PAD4 enzyme assay (NH3 release, BAEE substrate, fluorescence); type: biochemical; settings: PAD4 enzyme assay above (Conditions A or B) or similar assays; read-out: mean pIC50 (converted)
T1 construct: Recombinant human PAD4 (residues 1-663); GST (N, cleaved yes); made in house; host or cells: E. coli
Description: Recombinant human PAD4 (residues 1-663) was expressed in E. coli as an N-terminal GST-tagged fusion protein. During purification of the protein, the GST tag was removed by cleavage with PreScission Protease (GE Healthcare). Activity of the final product was determined using a FLINT NH3 release assay.
(§1) 8 μl of PAD4 enzyme diluted to an assay concentration of 75 nm in assay buffer (a).: (100 mM HEPES, 50 mM NaCl, 2 mM DTT and 0.6 mg/mIBSA pH 8), or in assay buffer (b).: (100 mM HEPES, 50 mM NaCl, 2 mM DTT, 7.5% glycerol and 1.5 mM CHAPS pH 8), and added to wells containing 0.1 μl of various concentrations of compound or DMSO vehicle (0.8% final) in a Greiner high volume 384 well black plate. Following 30 mins pre-incubation at room temperature, the reaction was initiated by the addition of 4 μl of substrate buffer containing 3 mM N-a-benzoyl-L-arginine ethyl ester (BAEE), 100 mM HEPES, 50 mM NaCl, 600 uM CaCl2 (2H2O) and 2 mM DTT, pH 8.0. The reaction was stopped after 100 mins with the addition of 38 μl stop/detection buffer containing 50 mM EDTA, 2.6 mM phthalaldehyde and 2.6 mM DTT. Assay incubated at room temperature for 90 mins before measuring fluorescent signal (λex 413/λem 476) on an Envision plate reader (Perkin Elmer Life Sciences, Waltham, Mass., USA)
as §1, with “of 30 nM” for “of 75 nm”, “buffer” for “buffer (a).:”, “mg/mIBSA” for “mg/mIBSA pH 8), or in assay buffer (b).: (100 mM HEPES, 50 mM NaCl, 2 mM DTT, 7.5% glycerol and 1.5 mM CHAPS”, “after 60” for “after 100”, “(λex 405/λem 460)” for “(λex 413/λem 476)”

[2] = biological target: T2, Recombinant human PAD2 (residues 1-665) (Homo sapiens, UniProt Q9Y2J8); assay: PAD2 enzyme assay (NH3 release, BAEE substrate, fluorescence); type: biochemical; settings: PAD2 enzyme assay above or similar assays; read-out: mean pIC50 (converted)
T2 construct: Recombinant human PAD2 (residues 1-665); 6His-FLAG (N); made in house; host or cells: baculovirus-infected Sf9 insect cells
Description: Recombinant human PAD2 (residues 1-665) was expressed in baculovirus-infected Sf9 insect cells as an N-terminal 6His-FLAG-tagged fusion protein. Activity of the final product was determined using a FLINT NH3 release assay.
8 μl of PAD2 enzyme diluted to an assay concentration of 30 nM in assay buffer (100 mM HEPES, 50 mM NaCl, 2 mM DTT, 7.5% glycerol and 1.5 mM CHAPS pH 8), and added to wells containing 0.1 μl of various concentrations of compound or DMSO vehicle (0.8% final) in a Greiner high volume 384 well black plate. Following 30 mins pre-incubation at room temperature, the reaction was initiated by the addition of 4 μl of substrate buffer containing 180 uM N-a-benzoyl-L-arginine ethyl ester (BAEE), 100 mM HEPES, 50 mM NaCl, 240 uM CaCl2 (2H2O) and 2 mM DTT, pH 8.0. The reaction was stopped after 90 mins with the addition of 38 μl stop/detection buffer containing 50 mM EDTA, 2.6 mM phthalaldehyde and 2.6 mM DTT. Assay incubated at room temperature for 90 mins before measuring fluorescent signal (λex 405/λem 460) on an Envision plate reader (Perkin Elmer Life Sciences, Waltham, Mass., USA)

T1 sequence (Q9UM07 whole entry, the tested form may be a part): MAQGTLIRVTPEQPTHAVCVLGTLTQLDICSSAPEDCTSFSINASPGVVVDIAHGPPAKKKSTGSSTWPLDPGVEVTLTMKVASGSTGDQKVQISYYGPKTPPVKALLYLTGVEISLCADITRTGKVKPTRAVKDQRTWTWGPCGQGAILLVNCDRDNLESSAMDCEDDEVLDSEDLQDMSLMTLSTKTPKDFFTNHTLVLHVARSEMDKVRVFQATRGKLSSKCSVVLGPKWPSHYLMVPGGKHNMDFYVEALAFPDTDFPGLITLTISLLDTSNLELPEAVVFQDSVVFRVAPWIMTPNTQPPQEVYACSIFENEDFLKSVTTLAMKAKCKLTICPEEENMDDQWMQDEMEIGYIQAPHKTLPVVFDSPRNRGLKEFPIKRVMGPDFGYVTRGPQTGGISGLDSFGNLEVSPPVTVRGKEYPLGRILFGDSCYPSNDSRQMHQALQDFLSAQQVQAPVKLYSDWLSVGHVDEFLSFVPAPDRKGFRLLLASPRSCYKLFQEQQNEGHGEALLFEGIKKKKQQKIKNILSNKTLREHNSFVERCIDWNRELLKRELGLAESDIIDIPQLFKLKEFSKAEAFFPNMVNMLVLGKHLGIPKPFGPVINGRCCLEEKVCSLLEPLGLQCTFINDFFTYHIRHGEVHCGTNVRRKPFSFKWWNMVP
T2 sequence (Q9Y2J8 whole entry, the tested form may be a part): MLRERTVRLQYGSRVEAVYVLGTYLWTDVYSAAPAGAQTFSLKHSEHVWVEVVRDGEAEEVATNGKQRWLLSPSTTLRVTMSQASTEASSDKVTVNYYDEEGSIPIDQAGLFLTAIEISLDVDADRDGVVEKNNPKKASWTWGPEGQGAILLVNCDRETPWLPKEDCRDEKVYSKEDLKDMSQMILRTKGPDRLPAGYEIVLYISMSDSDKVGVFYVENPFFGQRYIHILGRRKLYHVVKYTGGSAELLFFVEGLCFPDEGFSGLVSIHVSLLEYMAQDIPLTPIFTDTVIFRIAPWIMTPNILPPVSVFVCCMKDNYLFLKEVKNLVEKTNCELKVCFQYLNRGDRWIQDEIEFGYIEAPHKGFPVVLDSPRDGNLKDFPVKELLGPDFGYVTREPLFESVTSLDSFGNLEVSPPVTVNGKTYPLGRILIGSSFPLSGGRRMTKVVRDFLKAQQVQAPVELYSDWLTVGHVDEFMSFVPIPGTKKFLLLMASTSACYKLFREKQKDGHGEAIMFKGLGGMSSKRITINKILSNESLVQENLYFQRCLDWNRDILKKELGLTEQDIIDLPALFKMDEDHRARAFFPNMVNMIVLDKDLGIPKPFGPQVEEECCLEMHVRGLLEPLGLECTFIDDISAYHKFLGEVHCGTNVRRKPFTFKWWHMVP

Compound: COc1cc(C(=O)N2CCC[C@@H](N)C2)cc2nc(-c3cc4cccnc4n3CC3CC3)n(C)c12 [Example 10B, (R)-(3-Aminopiperidin-1-yl)(2-(1-(cyclopropylmethyl)-1H-pyrrolo[2,3-b]pyridin-2-yl)-7-methoxy-1-methyl-1H-benzo[d]imidazol-5-yl)methanone, hydrochloride]
- IC50 [1]: 0.0316 to 10 µM and 0.0501 µM
- IC50 [2]: 63.1 to 79.4 µM and > 79.4 µM

Compound: CCn1c(-c2nc3cc(C(=O)N4CCC[C@@H](N)C4)ccc3n2C)cc2cccnc21 [Example 2B, (R)-(3-Aminopiperidin-1-yl)(2-(1-ethyl-1H-pyrrolo[2,3-b]pyridin-2-yl)-1-methyl-1H-benzo[d]imidazol-5-ylmethanone hydrochloride]
- IC50 [2]: 63.1 to 79.4 µM

Compound: COc1cc(C(=O)N2CCC[C@@H](N)C2)cc2nc(-c3cc4cccnc4n3CC(F)(F)F)n(C)c12 [Example 11B, (R)-(3-Aminopiperidin-1-yl)(7-methoxy-1-methyl-2-(1-(2,2,2-trifluoroethyl)-1H-pyrrolo[2,3-b]pyridin-2-yl)-1H-benzo[d]imidazol-5-yl)methanone, hydrochloride]
- IC50 [1]: 0.0316 to 10 µM and 0.126 µM
- IC50 [2]: 63.1 to 79.4 µM and > 79.4 µM

Compound: Cn1c(-c2cc3cccnc3n2CC2CC2)nc2cc(C(=O)N3CC[C@@H](O)[C@@H](N)C3)ccc21 [Example 13, ((3S,4R)-3-Amino-4-hydroxypiperidin-1-yl)(2-(1-(cyclopropylmethyl)-1H-pyrrolo[2,3-b]pyridin-2-yl)-1-methyl-1H-benzo[d]imidazol-5-yl)methanone, hydrochloride]
- IC50 [1]: 0.0316 to 10 µM
- IC50 [2]: 63.1 to 79.4 µM

Compound: COc1cc(C(=O)N2CCC[C@@H](N)C2)cc2nc(-c3cc4cccnc4n3CC(C)C)n(C)c12 [Example 22, (R)-(3-Aminopiperidin-1-yl)(2-(1-isobutyl-1H-pyrrolo[2,3-b]pyridin-2-yl)-7-methoxy-1-methyl-1H-benzo[d]imidazol-5-yl)methanone, hydrochloride]
- IC50 [1]: 0.0316 to 10 µM
- IC50 [2]: 63.1 to 79.4 µM

Compound: CCn1c(-c2nc3cc(C(=O)N4CCCC(N)C4)ccc3n2C)cc2cccnc21 (stereo not drawn) [Example 12, (3-Aminopiperidin-1-yl)(2-(1-ethyl-1H-pyrrolo[2,3-b]pyridin-2-yl)-1-methyl-1H-benzo[d]imidazol-5-yl)methanone]
- IC50 [1]: 0.0316 to 10 µM

Compound: Cn1c(-c2cc3cccnc3n2CC(F)(F)F)nc2cc(C(=O)N3CCC[C@@H](N)C3)ccc21 [Example 4A, (R)-(3-Aminopiperidin-1-yl)(1-methyl-2-(1-(2,2,2-trifluoroethyl)-1H-pyrrolo[2,3-b]-pyridin-2-yl)-1H-benzo[d]imidazol-5-yl)methanone]
- IC50 [1]: 0.0316 to 10 µM

Compound: CCn1c(-c2nc3cc(C(=O)N4CCC[C@@H](N)C4)cc(OC(F)(F)F)c3n2C)cc2cccnc21 [Example 15, (R)-(3-Aminopiperidin-1-yl)(2-(1-ethyl-1H-pyrrolo[2,3-b]pyridin-2-yl)-1-methyl-7-(trifluoromethoxy)-1H-benzo[d]imidazol-5-yl)methanone]
- IC50 [1]: 0.0316 to 10 µM

Compound: Cn1c(-c2cc3cccnc3n2CC2CC2)nc2cc(C(=O)N3CCC[C@@H](N)C3)ccc21 [Example 5B, (R)-(3-Aminopiperidin-1-yl)(2-(1-(cyclopropylmethyl)-1H-pyrrolo[2,3-b]pyridin-2-yl)-1-methyl-1H-benzo[d]imidazol-5-yl)methanone, hydrochloride]
- IC50 [1]: 0.0316 to 10 µM and 0.2 µM
- IC50 [2]: 63.1 to 79.4 µM and > 79.4 µM

Compound: CCn1c(-c2nc3cc(C(=O)N4CCC[C@H](N)C4)cc(OC)c3n2C)cc2cccnc21 [Example 19, (S)-(3-Aminopiperidin-1-yl)(2-(1-ethyl-1H-pyrrolo[2,3-b]pyridin-2-yl)-7-methoxy-1-methyl-1H-benzo[d]imidazol-5-yl)methanone, hydrochloride]
- IC50 [1]: 0.0316 to 10 µM
- IC50 [2]: 63.1 to 79.4 µM

Compound: CCn1c(-c2nc3cc(C(=O)N4CCC[C@@H](N)C4)cc(OC)c3n2C)cc2cccnc21 [Example 9B, (R)-(3-Aminopiperidin-1-yl)(2-(1-ethyl-1H-pyrrolo[2,3-b]pyridin-2-yl)-7-methoxy-1-methyl-1H-benzo[d]imidazol-5-yl)methanone, hydrochloride]
- IC50 [2]: 63.1 to 79.4 µM and > 79.4 µM

Compound: CCn1c(-c2nc3cc(C(=O)N4CCC[C@@H](N)C4)ccc3n2C)cc2cc(OC)cnc21 [Example 6, (R)-(3-Aminopiperidin-1-yl)(2-(1-ethyl-5-methoxy-1H-pyrrolo[2,3-b]pyridin-2-yl)-1-methyl-1H-benzo[d]imidazol-5-yl)methanone]
- IC50 [1]: 0.0316 to 10 µM

Compound: CCn1c(-c2nc3cc(C(=O)N4CCC[C@@H](N)C4)ccc3n2C)cc2cccnc21 [Example 2A, (R)-(3-Aminopiperidin-1-yl)(2-(1-ethyl-1H-pyrrolo[2,3-b]pyridin-2-yl)-1-methyl-1H-benzo[d]imidazol-5-yl)methanone]
- IC50 [1]: 0.0316 to 10 µM

Compound: CCn1c(-c2nc3cc(C(=O)N4CCCC(N)C4)ccc3n2C)cc2cnccc21 (stereo not drawn) [Example 1, 1-{[2-(1-Ethyl-1H-pyrrolo[3,2-c]pyridin-2-yl)-1-methyl-1H-benzimidazol-5-yl]carbonyl}-3-piperidinamine]
- IC50 [1]: 0.0316 to 10 µM

Compound: COc1cc(C(=O)N2CC[C@@H](O)[C@@H](N)C2)cc2nc(-c3cc4cccnc4n3CC3CC3)n(C)c12 [Example 14, ((3S,4R)-3-Amino-4-hydroxypiperidin-1-yl)(2-(1-(cyclopropylmethyl)-1H-pyrrolo[2,3-b]pyridin-2-yl)-7-methoxy-1-methyl-1H-benzo[d]imidazol-5-yl)methanone, hydrochloride]
- IC50 [1]: 0.0316 to 10 µM and 0.0794 µM
- IC50 [2]: > 79.4 µM

Compound: COc1cc(C(=O)N2CCC[C@@H](N)C2)cc2nc(-c3cc4cccnc4n3CC(C)(C)C)n(C)c12 [Example 16, (R)-(3-Aminopiperidin-1-yl)(7-methoxy-1-methyl-2-(1-neopentyl-1H-pyrrolo[2,3-b]pyridin-2-yl)-1H-benzo[d]imidazol-5-yl)methanone]
- IC50 [1]: 0.0316 to 10 µM
- IC50 [2]: 63.1 to 79.4 µM
